# ChEMBL document CHEMBL5608182, “Synthesis and evaluation of neuroactive steroids with novel pharmacophore at C-21 let identify a compound with advantageous PK profile and higher EC50 and Emax as PAM on GABAA receptor” (Eur J Med Chem, 2024)
# Target: GABA-A receptor; alpha-1/beta-2/gamma-2 (Homo sapiens) (UniProt P14867+P47870+P18507)
# Experiment: Positive allosteric modulation of synaptic alpha1beta2gamma2 GABA-A receptor (unknown origin) transfected in LTK cells assessed as potentiation of GABA-induced peak current amplitude by measuring maximal efficacy at 0.01 to 10 uM at -80 mV holding potential preincubated for 30 secs followed by GABA stimulation for 2 secs by Q-patch assay relative to control
# Assay type: cell-based
# Settings: filed as positive allosteric modulator, dose 0.01-10 µM, time 32.0 sec
row,Structure (SMILES),Emax [%]
1,C[C@@]1(O)CC[C@H]2[C@H](CC[C@@H]3[C@@H]2CC[C@]2(C)[C@@H](C(=O)Cn4cnn(-c5cccc(OC(F)(F)F)c5)c4=O)CC[C@@H]32)C1,629
2,C[C@@]1(O)CC[C@H]2[C@H](CC[C@@H]3[C@@H]2CC[C@]2(C)[C@@H](C(=O)Cn4cnn(CC(F)(F)F)c4=O)CC[C@@H]32)C1,378
3,C[C@@]1(O)CC[C@H]2[C@H](CC[C@@H]3[C@@H]2CC[C@]2(C)[C@@H](C(=O)Cn4cnn(-c5cccc(C#N)c5)c4=O)CC[C@@H]32)C1,1050
4,C[C@@]1(O)CC[C@H]2[C@H](CC[C@@H]3[C@@H]2CC[C@]2(C)[C@@H](C(=O)Cn4cnn(-c5cncc(F)c5)c4=O)CC[C@@H]32)C1,618
5,C[C@@]1(O)CC[C@H]2[C@H](CC[C@@H]3[C@@H]2CC[C@]2(C)[C@@H](C(=O)Cn4cnn(-c5ccccc5)c4=O)CC[C@@H]32)C1,430
6,C[C@@]1(O)CC[C@H]2[C@H](CC[C@@H]3[C@@H]2CC[C@]2(C)[C@@H](C(=O)Cn4cnn(-c5cc(F)ccc5F)c4=O)CC[C@@H]32)C1,347
7,C[C@@]1(O)CC[C@H]2[C@H](CC[C@@H]3[C@@H]2CC[C@]2(C)[C@@H](C(=O)Cn4cnn(-c5nccs5)c4=O)CC[C@@H]32)C1,763
8,C[C@@]1(O)CC[C@H]2[C@H](CC[C@@H]3[C@@H]2CC[C@]2(C)[C@@H](C(=O)Cn4cnn(-c5ccccc5F)c4=O)CC[C@@H]32)C1,710
9,CCn1ncn(CC(=O)[C@H]2CC[C@H]3[C@@H]4CC[C@@H]5C[C@](C)(O)CC[C@@H]5[C@H]4CC[C@]23C)c1=O,632
10,C[C@@]1(O)CC[C@H]2[C@H](CC[C@@H]3[C@@H]2CC[C@]2(C)[C@@H](C(=O)Cn4cnn(-c5ccc6c(c5)OCO6)c4=O)CC[C@@H]32)C1,387
11,C[C@@]1(O)CC[C@H]2[C@H](CC[C@@H]3[C@@H]2CC[C@]2(C)[C@@H](C(=O)Cn4cnn(-c5cccc(N)c5)c4=O)CC[C@@H]32)C1,786

# Target: Gamma-aminobutyric acid receptor subunit alpha-4/beta3/delta (Homo sapiens, UniProt O14764+P28472+P48169)
# Experiment: Positive allosteric modulation of extrasynaptic alpha4beta3delta GABA-A receptor (unknown origin) transfected in CHO cells assessed as potentiation of GABA-induced peak current amplitude at -80 mV holding potential preincubated for 30 secs followed by GABA stimulation for 2 secs by manual patch assay
# Assay type: cell-based
# Settings: not given
# Gamma-aminobutyric acid receptor subunit alpha-4/beta3/delta, sequence (P28472 whole entry): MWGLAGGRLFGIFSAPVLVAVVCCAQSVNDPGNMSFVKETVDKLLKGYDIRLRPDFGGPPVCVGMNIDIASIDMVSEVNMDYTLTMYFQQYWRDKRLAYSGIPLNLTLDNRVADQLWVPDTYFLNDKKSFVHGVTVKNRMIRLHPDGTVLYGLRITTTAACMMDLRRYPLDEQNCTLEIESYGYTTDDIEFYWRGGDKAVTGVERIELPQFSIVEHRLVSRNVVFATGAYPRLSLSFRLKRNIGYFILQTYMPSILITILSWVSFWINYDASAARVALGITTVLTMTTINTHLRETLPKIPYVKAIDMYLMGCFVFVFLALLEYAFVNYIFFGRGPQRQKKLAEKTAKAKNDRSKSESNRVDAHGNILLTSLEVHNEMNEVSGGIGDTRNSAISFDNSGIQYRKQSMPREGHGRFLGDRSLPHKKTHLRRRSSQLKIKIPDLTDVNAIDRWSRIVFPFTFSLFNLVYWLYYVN
# Gamma-aminobutyric acid receptor subunit alpha-4/beta3/delta, sequence (P48169 whole entry): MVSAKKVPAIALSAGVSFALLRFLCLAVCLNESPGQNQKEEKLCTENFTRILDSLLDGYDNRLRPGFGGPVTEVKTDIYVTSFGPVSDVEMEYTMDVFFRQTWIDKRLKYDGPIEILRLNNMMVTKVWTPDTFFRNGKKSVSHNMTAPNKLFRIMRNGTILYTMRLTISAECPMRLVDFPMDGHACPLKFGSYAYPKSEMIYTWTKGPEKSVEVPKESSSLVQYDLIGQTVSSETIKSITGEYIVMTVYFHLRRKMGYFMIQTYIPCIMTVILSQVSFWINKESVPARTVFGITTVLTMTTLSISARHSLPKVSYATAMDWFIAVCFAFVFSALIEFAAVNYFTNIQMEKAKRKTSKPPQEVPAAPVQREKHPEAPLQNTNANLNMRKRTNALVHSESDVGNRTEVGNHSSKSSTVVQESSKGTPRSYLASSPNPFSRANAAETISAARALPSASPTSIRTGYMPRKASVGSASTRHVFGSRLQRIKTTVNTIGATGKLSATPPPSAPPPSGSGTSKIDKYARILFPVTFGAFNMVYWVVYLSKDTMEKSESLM
# Gamma-aminobutyric acid receptor subunit alpha-4/beta3/delta, sequence (O14764 whole entry): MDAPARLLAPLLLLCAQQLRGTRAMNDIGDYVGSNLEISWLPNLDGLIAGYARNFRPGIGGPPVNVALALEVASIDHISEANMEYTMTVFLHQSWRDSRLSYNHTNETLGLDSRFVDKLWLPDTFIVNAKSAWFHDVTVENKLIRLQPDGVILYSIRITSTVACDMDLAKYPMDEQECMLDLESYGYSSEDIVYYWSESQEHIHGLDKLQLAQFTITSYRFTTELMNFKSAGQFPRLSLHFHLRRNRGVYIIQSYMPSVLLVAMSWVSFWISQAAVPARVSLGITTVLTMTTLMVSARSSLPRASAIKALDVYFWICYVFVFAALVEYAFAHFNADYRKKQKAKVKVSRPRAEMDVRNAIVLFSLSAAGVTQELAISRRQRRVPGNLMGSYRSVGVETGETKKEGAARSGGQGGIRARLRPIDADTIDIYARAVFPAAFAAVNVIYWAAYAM
row,Structure (SMILES),EC50 [nM]
1,C[C@@]1(O)CC[C@H]2[C@H](CC[C@@H]3[C@@H]2CC[C@]2(C)[C@@H](C(=O)Cn4cnn(-c5cccc(OC(F)(F)F)c5)c4=O)CC[C@@H]32)C1,41
2,C[C@@]1(O)CC[C@H]2[C@H](CC[C@@H]3[C@@H]2CC[C@]2(C)[C@@H](C(=O)Cn4cnn(CC(F)(F)F)c4=O)CC[C@@H]32)C1,1240
3,C[C@@]1(O)CC[C@H]2[C@H](CC[C@@H]3[C@@H]2CC[C@]2(C)[C@@H](C(=O)Cn4cnn(-c5cccc(C#N)c5)c4=O)CC[C@@H]32)C1,50
4,C[C@@]1(O)CC[C@H]2[C@H](CC[C@@H]3[C@@H]2CC[C@]2(C)[C@@H](C(=O)Cn4cnn(-c5cncc(F)c5)c4=O)CC[C@@H]32)C1,150
5,C[C@@]1(O)CC[C@H]2[C@H](CC[C@@H]3[C@@H]2CC[C@]2(C)[C@@H](C(=O)Cn4cnn(-c5ccccc5)c4=O)CC[C@@H]32)C1,29
6,C[C@@]1(O)CC[C@H]2[C@H](CC[C@@H]3[C@@H]2CC[C@]2(C)[C@@H](C(=O)Cn4cnn(-c5cc(F)ccc5F)c4=O)CC[C@@H]32)C1,79
7,C[C@@]1(O)CC[C@H]2[C@H](CC[C@@H]3[C@@H]2CC[C@]2(C)[C@@H](C(=O)Cn4cnn(-c5nccs5)c4=O)CC[C@@H]32)C1,126
8,C[C@@]1(O)CC[C@H]2[C@H](CC[C@@H]3[C@@H]2CC[C@]2(C)[C@@H](C(=O)Cn4cnn(-c5ccccc5F)c4=O)CC[C@@H]32)C1,107
9,CCn1ncn(CC(=O)[C@H]2CC[C@H]3[C@@H]4CC[C@@H]5C[C@](C)(O)CC[C@@H]5[C@H]4CC[C@]23C)c1=O,270
10,C[C@@]1(O)CC[C@H]2[C@H](CC[C@@H]3[C@@H]2CC[C@]2(C)[C@@H](C(=O)Cn4cnn(-c5ccc6c(c5)OCO6)c4=O)CC[C@@H]32)C1,266
11,C[C@@]1(O)CC[C@H]2[C@H](CC[C@@H]3[C@@H]2CC[C@]2(C)[C@@H](C(=O)Cn4cnn(-c5cccc(N)c5)c4=O)CC[C@@H]32)C1,213

# Target: Gamma-aminobutyric acid receptor subunit alpha-4/beta3/delta (Homo sapiens) (UniProt P28472+P48169+O14764)
# Experiment: Positive allosteric modulation of extrasynaptic alpha4beta3delta GABA-A receptor (unknown origin) transfected in CHO cells assessed as potentiation of GABA-induced peak current amplitude by measuring maximal efficacy at 0.01 to 10 uM at -80 mV holding potential preincubated for 30 secs followed by GABA stimulation for 2 secs by manual patch assay relative to control
# Assay type: cell-based
# Settings: filed as positive allosteric modulator, dose 0.01-10 µM, time 32.0 sec
row,Structure (SMILES),Emax [%]
1,C[C@@]1(O)CC[C@H]2[C@H](CC[C@@H]3[C@@H]2CC[C@]2(C)[C@@H](C(=O)Cn4cnn(-c5cccc(OC(F)(F)F)c5)c4=O)CC[C@@H]32)C1,1580
2,C[C@@]1(O)CC[C@H]2[C@H](CC[C@@H]3[C@@H]2CC[C@]2(C)[C@@H](C(=O)Cn4cnn(CC(F)(F)F)c4=O)CC[C@@H]32)C1,1280
3,C[C@@]1(O)CC[C@H]2[C@H](CC[C@@H]3[C@@H]2CC[C@]2(C)[C@@H](C(=O)Cn4cnn(-c5cccc(C#N)c5)c4=O)CC[C@@H]32)C1,683
4,C[C@@]1(O)CC[C@H]2[C@H](CC[C@@H]3[C@@H]2CC[C@]2(C)[C@@H](C(=O)Cn4cnn(-c5cncc(F)c5)c4=O)CC[C@@H]32)C1,601
5,C[C@@]1(O)CC[C@H]2[C@H](CC[C@@H]3[C@@H]2CC[C@]2(C)[C@@H](C(=O)Cn4cnn(-c5ccccc5)c4=O)CC[C@@H]32)C1,430
6,C[C@@]1(O)CC[C@H]2[C@H](CC[C@@H]3[C@@H]2CC[C@]2(C)[C@@H](C(=O)Cn4cnn(-c5cc(F)ccc5F)c4=O)CC[C@@H]32)C1,743
7,C[C@@]1(O)CC[C@H]2[C@H](CC[C@@H]3[C@@H]2CC[C@]2(C)[C@@H](C(=O)Cn4cnn(-c5nccs5)c4=O)CC[C@@H]32)C1,633
8,C[C@@]1(O)CC[C@H]2[C@H](CC[C@@H]3[C@@H]2CC[C@]2(C)[C@@H](C(=O)Cn4cnn(-c5ccccc5F)c4=O)CC[C@@H]32)C1,541
9,CCn1ncn(CC(=O)[C@H]2CC[C@H]3[C@@H]4CC[C@@H]5C[C@](C)(O)CC[C@@H]5[C@H]4CC[C@]23C)c1=O,526
10,C[C@@]1(O)CC[C@H]2[C@H](CC[C@@H]3[C@@H]2CC[C@]2(C)[C@@H](C(=O)Cn4cnn(-c5ccc6c(c5)OCO6)c4=O)CC[C@@H]32)C1,1200
11,C[C@@]1(O)CC[C@H]2[C@H](CC[C@@H]3[C@@H]2CC[C@]2(C)[C@@H](C(=O)Cn4cnn(-c5cccc(N)c5)c4=O)CC[C@@H]32)C1,1070

# Target: T1, GABA-A receptor; alpha-1/beta-2/gamma-2 (Homo sapiens, UniProt P14867+P18507+P47870)
# T1 sequence (P14867 whole entry): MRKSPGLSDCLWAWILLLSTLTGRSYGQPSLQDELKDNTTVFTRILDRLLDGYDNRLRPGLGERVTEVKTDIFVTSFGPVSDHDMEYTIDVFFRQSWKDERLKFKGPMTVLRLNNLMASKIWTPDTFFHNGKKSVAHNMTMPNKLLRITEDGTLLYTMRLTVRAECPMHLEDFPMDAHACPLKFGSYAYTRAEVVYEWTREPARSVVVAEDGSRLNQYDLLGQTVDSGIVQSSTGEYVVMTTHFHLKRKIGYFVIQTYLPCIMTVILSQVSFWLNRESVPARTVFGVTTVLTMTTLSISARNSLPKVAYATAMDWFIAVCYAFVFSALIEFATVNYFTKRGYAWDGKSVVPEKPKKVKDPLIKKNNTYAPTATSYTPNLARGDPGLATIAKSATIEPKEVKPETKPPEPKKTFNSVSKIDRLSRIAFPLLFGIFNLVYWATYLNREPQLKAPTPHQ
# T1 sequence (P47870 whole entry): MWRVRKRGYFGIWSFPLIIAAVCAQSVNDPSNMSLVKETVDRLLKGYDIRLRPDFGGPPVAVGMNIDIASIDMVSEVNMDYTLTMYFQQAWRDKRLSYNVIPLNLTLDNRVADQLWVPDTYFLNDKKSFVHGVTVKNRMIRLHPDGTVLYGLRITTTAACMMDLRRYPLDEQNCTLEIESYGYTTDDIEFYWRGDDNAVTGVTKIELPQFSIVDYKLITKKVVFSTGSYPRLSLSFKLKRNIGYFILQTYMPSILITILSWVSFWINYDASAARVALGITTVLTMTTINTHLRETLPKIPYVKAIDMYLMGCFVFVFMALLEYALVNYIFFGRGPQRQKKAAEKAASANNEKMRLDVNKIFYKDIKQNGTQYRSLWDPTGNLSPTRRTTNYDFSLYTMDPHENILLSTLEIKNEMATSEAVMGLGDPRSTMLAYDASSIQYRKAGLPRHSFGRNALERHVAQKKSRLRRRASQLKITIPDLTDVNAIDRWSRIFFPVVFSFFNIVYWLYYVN
# T1 sequence (P18507 whole entry): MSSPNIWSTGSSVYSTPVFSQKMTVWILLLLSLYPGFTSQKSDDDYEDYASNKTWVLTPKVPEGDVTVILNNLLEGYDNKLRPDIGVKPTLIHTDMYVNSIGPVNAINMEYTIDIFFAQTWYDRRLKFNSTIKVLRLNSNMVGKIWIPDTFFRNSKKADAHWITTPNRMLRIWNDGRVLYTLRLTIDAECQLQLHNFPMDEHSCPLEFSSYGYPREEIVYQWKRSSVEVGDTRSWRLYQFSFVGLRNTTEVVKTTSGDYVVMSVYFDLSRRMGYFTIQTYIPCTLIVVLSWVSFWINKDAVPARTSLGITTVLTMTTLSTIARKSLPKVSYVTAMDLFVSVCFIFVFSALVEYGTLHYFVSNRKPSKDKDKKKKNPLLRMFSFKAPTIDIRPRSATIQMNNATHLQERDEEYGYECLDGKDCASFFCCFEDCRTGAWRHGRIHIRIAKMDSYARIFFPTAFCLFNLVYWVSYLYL
# Experiment: Positive allosteric modulation of synaptic alpha1beta2gamma2 GABA-A receptor (unknown origin) transfected in LTK cells assessed as potentiation of GABA-induced peak current amplitude at -80 mV holding potential preincubated for 30 secs followed by GABA stimulation for 2 secs by Q-patch assay
# Assay type: cell-based
# Settings: not given
row,Structure (SMILES),EC50 [nM]
1,C[C@@]1(O)CC[C@H]2[C@H](CC[C@@H]3[C@@H]2CC[C@]2(C)[C@@H](C(=O)Cn4cnn(-c5cccc(OC(F)(F)F)c5)c4=O)CC[C@@H]32)C1,182
2,C[C@@]1(O)CC[C@H]2[C@H](CC[C@@H]3[C@@H]2CC[C@]2(C)[C@@H](C(=O)Cn4cnn(CC(F)(F)F)c4=O)CC[C@@H]32)C1,548
3,C[C@@]1(O)CC[C@H]2[C@H](CC[C@@H]3[C@@H]2CC[C@]2(C)[C@@H](C(=O)Cn4cnn(-c5cccc(C#N)c5)c4=O)CC[C@@H]32)C1,112
4,C[C@@]1(O)CC[C@H]2[C@H](CC[C@@H]3[C@@H]2CC[C@]2(C)[C@@H](C(=O)Cn4cnn(-c5cncc(F)c5)c4=O)CC[C@@H]32)C1,145
5,C[C@@]1(O)CC[C@H]2[C@H](CC[C@@H]3[C@@H]2CC[C@]2(C)[C@@H](C(=O)Cn4cnn(-c5ccccc5)c4=O)CC[C@@H]32)C1,90
6,C[C@@]1(O)CC[C@H]2[C@H](CC[C@@H]3[C@@H]2CC[C@]2(C)[C@@H](C(=O)Cn4cnn(-c5cc(F)ccc5F)c4=O)CC[C@@H]32)C1,340
7,C[C@@]1(O)CC[C@H]2[C@H](CC[C@@H]3[C@@H]2CC[C@]2(C)[C@@H](C(=O)Cn4cnn(-c5nccs5)c4=O)CC[C@@H]32)C1,330
8,C[C@@]1(O)CC[C@H]2[C@H](CC[C@@H]3[C@@H]2CC[C@]2(C)[C@@H](C(=O)Cn4cnn(-c5ccccc5F)c4=O)CC[C@@H]32)C1,171
9,CCn1ncn(CC(=O)[C@H]2CC[C@H]3[C@@H]4CC[C@@H]5C[C@](C)(O)CC[C@@H]5[C@H]4CC[C@]23C)c1=O,190
10,C[C@@]1(O)CC[C@H]2[C@H](CC[C@@H]3[C@@H]2CC[C@]2(C)[C@@H](C(=O)Cn4cnn(-c5ccc6c(c5)OCO6)c4=O)CC[C@@H]32)C1,139
11,C[C@@]1(O)CC[C@H]2[C@H](CC[C@@H]3[C@@H]2CC[C@]2(C)[C@@H](C(=O)Cn4cnn(-c5cccc(N)c5)c4=O)CC[C@@H]32)C1,349
